Source: publication PMC6233306 (Bioorganic & medicinal chemistry letters, 2018)
Converted amounts (≈) assume the structure as drawn.

Tests used:
Mtb H37Rv = Mtb H37Rv growth inhibition; type: cell-based, Mycobacterium tuberculosis; details: for MIC90: Mycobacterium tuberculosis, H37RV, read-out: Mtb H37Rv MIC90; for MICs: in words
[1] = Chemical stability of coumarin core towards organic bases; type: physicochemical; details: prolonged time at ambient temperature; gives equimolar ring-opened product 5
[2] = Kinetic aqueous solubility; type: physicochemical; details: pH 7.4, water, kinetic from dmso stock

Compound | MIC90 (Mtb H37Rv) [µM] | further results
Cc1cc2nccc(-c3ccccc3C#N)c2c(C)c1-c1ccc(CN2CCOCC2)cc1 [Compound 15d] | 2.5 (≈ 1.08 µg/mL) | –
CCOC(=O)c1cc(-c2ccccc2Cl)c2c(C)c(-c3ccncc3)c(C)cc2n1 [Compound 18] | 10 (≈ 4.17 µg/mL) | –
Cc1cc2nccc(-c3ccccc3)c2c(C)c1-c1ccc(CN2CCOCC2)cc1 [Compound 8] | 0.45 (≈ 0.184 µg/mL) | –
Cc1cc2nc(C(=O)NCCO)cc(-c3ccccc3Cl)c2c(C)c1-c1ccncc1 [Compound 21e] | 0.3 (≈ 0.13 µg/mL) | MICs (Mtb H37Rv): sub-micromolar
Cc1cc2nc(C(=O)NC(C)C)cc(-c3ccccc3Cl)c2c(C)c1-c1ccncc1 [Compound 21c] | 2.5 (≈ 1.07 µg/mL) | –
Cc1cc2nccc(-c3cccc(Cl)c3)c2c(C)c1-c1ccc(CN2CCOCC2)cc1 [Compound 15b] | 1.5 (≈ 0.664 µg/mL) | –
Cc1cc2oc(=O)cc(-c3ccc(F)cc3)c2c(C)c1-c1ccc(CN2CCOCC2)cc1 [Compound 4] | – | stability towards organic bases such as morpholine [1]: not stable
Cc1cc2nccc(-c3ccccc3Cl)c2c(C)c1-c1ccc(CN2CCOCC2)cc1 [Compound 15a] | 0.3 (≈ 0.133 µg/mL) | –
Cc1cc2nc(C(=O)N3CCCC3)cc(-c3ccccc3Cl)c2c(C)c1-c1ccncc1 [Compound 23b] | 5 (≈ 2.21 µg/mL) | –
CNC(=O)c1cc(-c2ccccc2Cl)c2c(C)c(-c3ccncc3)c(C)cc2n1 [Compound 21b] | 0.8 (≈ 0.322 µg/mL) | MICs (Mtb H37Rv): sub-micromolar; CFU reduction (H37Rv; lung, once-daily oral, dose-dependent, up to 50 mg/kg, 8-day acute model): ~4 log CFU; tolerability (H37Rv; mice, up to the highest dose of 50 mg/kg): no tolerability issue observed
Cc1cc2nc(C(=O)NCCF)cc(-c3ccccc3Cl)c2c(C)c1-c1ccncc1 [Compound 21d] | 1.25 (≈ 0.542 µg/mL) | –
COc1ncccc1-c1ccnc2cc(C)c(-c3ccc(CN4CCOCC4)cc3)c(C)c12 [Compound 15l] | 2.5 (≈ 1.1 µg/mL) | –
Cc1cc2nc(C(=O)NCCN(C)C)cc(-c3ccccc3Cl)c2c(C)c1-c1ccncc1 [Compound 21f] | 0.3 (≈ 0.138 µg/mL) | MICs (Mtb H37Rv): sub-micromolar
COc1ccncc1-c1ccnc2cc(C)c(-c3ccc(CN4CCOCC4)cc3)c(C)c12 [Compound 15k] | 2.5 (≈ 1.1 µg/mL) | –
Cc1cc2nccc(-c3cccnc3)c2c(C)c1-c1ccc(CN2CCOCC2)cc1 [Compound 15j] | – | solubility kinetic [2]: > 150 µM
Cc1cc2nccc(-c3cncnc3)c2c(C)c1-c1ccc(CN2CCOCC2)cc1 [Compound 15n] | 2.5 (≈ 1.03 µg/mL) | solubility kinetic [2]: > 150 µM
Cc1cc2nccc(-c3ccnn3C)c2c(C)c1-c1ccc(CN2CCOCC2)cc1 [Compound 15m] | 2.5 (≈ 1.03 µg/mL) | solubility kinetic [2]: > 150 µM
Cc1cc2nc(CO)cc(-c3ccccc3Cl)c2c(C)c1-c1ccncc1 [Compound 19] | 3.75 (≈ 1.41 µg/mL) | –
Cc1cc2nc(C(N)=O)cc(-c3ccccc3Cl)c2c(C)c1-c1ccncc1 [Compound 21a] | 1.25 (≈ 0.485 µg/mL) | –
Cc1cc2nccc(-c3ccccc3C(=O)O)c2c(C)c1-c1ccc(CN2CCOCC2)cc1 [Compound 15f] | 40 (≈ 18.1 µg/mL) | –
Cc1cc2nc(C(C)(C)O)cc(-c3ccccc3Cl)c2c(C)c1-c1ccncc1 [Compound 20] | > 40 | –
COc1cccc(-c2ccnc3cc(C)c(-c4ccc(CN5CCOCC5)cc4)c(C)c23)c1Cl [Compound 15h] | 10 (≈ 4.73 µg/mL) | –
CCc1ccccc1CNc1ccnc2cc(C)c(-c3ccc(CN4CCOCC4)cc3)c(C)c12 [Compound 15e] | 2.5 (≈ 1.16 µg/mL) | –
Cc1cc2nccc(-c3ccccc3Cl)c2c(C)c1-c1ccncc1 [Compound 15p] | 5 (≈ 1.72 µg/mL) | –
Cc1cc2nccc(-c3ccc(Cl)cc3)c2c(C)c1-c1ccc(CN2CCOCC2)cc1 [Compound 15c] | > 80 | –
Cc1cc2nccc(-c3ccccc3C(N)=O)c2c(C)c1-c1ccc(CN2CCOCC2)cc1 [Compound 15g] | 20 (≈ 9.03 µg/mL) | –
